SMILES strings stand for the structures.

As for `CN1Cc2c(Cl)cc(Cl)cc2C(c2ccc(Nc3c(NCc4ccco4)c(=O)c3=O)cc2)C1` (stereo not shown) [Example 56, 6,8-dichloro-2-methyl-4-[4N-(2N-(2-furylmethyl)amino-3,4-dioxocyclobuten-1-yl)amino]phenyl-1,2,3,4-tetrahydroisoquinoline], the melting point fell in the range of 264 to 268 °C.

`CCCCCCNc1c(Nc2ccc(C3CN(C)Cc4c(Cl)cc(Cl)cc43)cc2)c(=O)c1=O` (stereo not shown) [Example 58] returned a melting point of 234 to 238 °C. In the case of `CN1Cc2c(Cl)cc(Cl)cc2[C@H](c2ccc(Nc3c(NC4CC4)c(=O)c3=O)cc2)C1` [Example 35], the melting point was in the range of 280 to 285 °C. Next, `CN1Cc2c(Cl)cc(Cl)cc2C(c2ccccc2Nc2c(NCc3cccnc3)c(=O)c2=O)C1` (stereo not shown) [Example 52, 6,8-dichloro-2-methyl-4-[2N-(2N-(3-picolylmethyl)amino-3,4-dioxocyclobuten-1-yl)amino]phenyl-1,2,3,4-tetrahydroisoquinoline]: 244 to 246 °C.

For `CCCCCCNc1c(Nc2ccccc2C2CN(C)Cc3c(Cl)cc(Cl)cc32)c(=O)c1=O` (stereo not shown) [Example 45, 6,8-dichloro-2-methyl-4-[2N-(2-N-(1-hexylamino)-3,4-dioxocyclobuten-1-yl)amino]phenyl-1,2,3,4-tetrahydroisoquinoline], the melting point lay in the range of 157 to 160 °C. Next, `CC(C)Nc1c(Nc2ccccc2C2CN(C)Cc3c(Cl)cc(Cl)cc32)c(=O)c1=O` (stereo not shown) [Example 46, 6,8-dichloro-2-methyl-4-[2N-(2-N-isopropylamino-3,4-dioxocyclobuten-1-yl)amino]phenyl-1,2,3,4-tetrahydroisoquinoline]: 238 to 241 °C. Next, `CN1Cc2c(Cl)cc(Cl)cc2[C@H](c2ccccc2Nc2c(N(C)C)c(=O)c2=O)C1` [Example 21, 6,8-dichloro-2-methyl-4(R)-[2N-(2-dimethylamino-3,4-dioxocyclobuten-1-yl)amino]phenyl-1,2,3,4-tetrahydroisoquinoline]: 236 to 240 °C; `CCNc1c(Nc2ccc(C3CN(C)Cc4c(Cl)cc(Cl)cc43)cc2)c(=O)c1=O` (stereo not shown) [Example 51, 6,8-dichloro-2-methyl-4-[4N-(2-N-ethylamino-3,4-dioxocyclobuten-1-yl)amino]phenyl-1,2,3,4-tetrahydroisoquinoline]: 292 to 297 °C; `CN1Cc2c(Cl)cc(Cl)cc2C(c2ccc(Nc3c(Nc4ccccc4)c(=O)c3=O)cc2)C1` (stereo not shown) [Example 43, 6,8-dichloro-2-methyl-4-[4N-(2-N-phenylamino-3,4-dioxocyclobuten-1-yl)amino]phenyl-1,2,3,4-tetrahydroisoquinoline]: 288 to 294 °C. Next, `CN(C)CCNc1c(Nc2ccccc2C2CN(C)Cc3c(Cl)cc(Cl)cc32)c(=O)c1=O` (stereo not shown) [Example 50, 6,8-dichloro-2-methyl-4-[2N-(2-N-dimethylaminoethylamino-3,4-dioxocyclobuten-1-yl)amino]phenyl-1,2,3,4-tetrahydroisoquinoline]: 208 to 211 °C; `CC(C)Nc1c(Nc2ccc(C3CN(C)Cc4c(Cl)cc(Cl)cc43)cc2)c(=O)c1=O` (stereo not shown) [Example 55, 6,8-dichloro-2-methyl-4-[4N-(2N-isopropylamino-3,4-dioxocyclobuten-1-yl)amino]phenyl-1,2,3,4-tetrahydroisoquinoline]: 268 to 272 °C; `CCNc1c(Nc2ccccc2C2CN(C)Cc3c(Cl)cc(Cl)cc32)c(=O)c1=O` (stereo not shown) [Example 49, 6,8-dichloro-2-methyl-4-[2N-(2-N-ethylamino-3,4-dioxocyclobuten-1-yl)amino]phenyl-1,2,3,4-tetrahydroisoquinoline]: 205 to 208 °C. On to `CN(C)CCNc1c(Nc2cccc(C3CN(C)Cc4c(Cl)cc(Cl)cc43)c2)c(=O)c1=O` (stereo not shown) [Example 65], for which the melting point lay in the range of 198 to 200 °C. Turning to `CN1Cc2c(Cl)cc(Cl)cc2C(c2ccccc2Nc2c(NCc3ccco3)c(=O)c2=O)C1` (stereo not shown) [Example 48, 6,8-dichloro-2-methyl-4-[2N-(2N-(2-furylmethyl)amino-3,4-dioxocyclobuten-1-yl)amino]phenyl-1,2,3,4-tetrahydroisoquinoline], the melting point is 279 to 283 °C.

Compound `CN1Cc2c(Cl)cc(Cl)cc2C(c2ccc(Nc3c(N(C)C4CCCCC4)c(=O)c3=O)cc2)C1` (stereo not shown) [Example 17, 6,8-dichloro-2-methyl-4-[4N-(2-N-cyclohexyl-N-methylamino-3,4-dioxocyclobuten-1-yl)amino]phenyl-1,2,3,4-tetrahydroisoquinoline] showed a melting point of 260 to 265 °C. Then `CNc1c(Nc2ccc(C3CN(C)Cc4c(Cl)cc(Cl)cc43)cc2)c(=O)c1=O` (stereo not shown) [Example 53, 6,8-dichloro-2-methyl-4-[4N-(2N-methylamino-3,4-dioxocyclobuten-1-yl)amino]phenyl-1,2,3,4-tetrahydroisoquinoline], with 328 to 334 °C. The compound `CN1Cc2c(Cl)cc(Cl)cc2C(c2ccc(Nc3c(NCc4cccnc4)c(=O)c3=O)cc2)C1` (stereo not shown) [Example 59] showed a melting point of 288 to 290 °C. The compound `CC(C)Nc1c(Nc2cccc(C3CN(C)Cc4c(Cl)cc(Cl)cc43)c2)c(=O)c1=O` (stereo not shown) [Example 64] yielded a melting point of 240 to 244 °C. Compound `CNc1c(Nc2ccccc2C2CN(C)Cc3c(Cl)cc(Cl)cc32)c(=O)c1=O` (stereo not shown) [Example 44, 6,8-dichloro-2-methyl-4-[2N-(2-N-methylamino-3,4-dioxocyclobuten-1-yl)amino]phenyl-1,2,3,4-tetrahydroisoquinoline] gave a melting point of 224 to 230 °C.

In turn, `CN1Cc2c(Cl)cc(Cl)cc2C(c2ccc(Nc3c(NC4CCCC4)c(=O)c3=O)cc2)C1` (stereo not shown) [Example 54] showed a melting point of 300 to 304 °C. Then `CNc1c(Nc2cccc(C3CN(C)Cc4c(Cl)cc(Cl)cc43)c2)c(=O)c1=O` (stereo not shown) [Example 60], with 295 to 298 °C. Then `CN1Cc2c(Cl)cc(Cl)cc2C(c2cccc(Nc3c(NC4CCCC4)c(=O)c3=O)c2)C1` (stereo not shown) [Example 63, 6,8-dichloro-2-methyl-4-[3N-(2-cyclopentylamino-3,4-dioxocyclobuten-1-yl)amino]phenyl-1,2,3,4-tetrahydroisoquinoline], with 248 to 252 °C. `CN1Cc2c(Cl)cc(Cl)cc2C(c2ccccc2Nc2c(NC3CCCC3)c(=O)c2=O)C1` (stereo not shown) [Example 47, 6,8-dichloro-2-methyl-4-[2N-(2-N-cyclopentylamino-3,4-dioxocyclobuten-1-yl)amino]phenyl-1,2,3,4-tetrahydroisoquinoline] registered a melting point of 278 to 281 °C. Next, `CN(C)CCNc1c(Nc2ccc(C3CN(C)Cc4c(Cl)cc(Cl)cc43)cc2)c(=O)c1=O` (stereo not shown) [Example 57]: 262 to 266 °C; `CN1Cc2c(Cl)cc(Cl)cc2[C@H](c2ccc(Nc3c(N(C)C)c(=O)c3=O)cc2)C1` [Example 20, 6,8-dichloro-2-methyl-4(S)-[4N-(2-dimethylamino-3,4-dioxocyclobuten-1-yl)amino]phenyl-1,2,3,4-tetrahydroisoquinoline]: 240 to 247 °C.
